Reference: US10913736B2 (UNIVERSITY OF WASHINGTON, priority 2014, dated 2021)

Key:
MetRS (T. brucei) = MetRS (T. brucei) (Trypanosoma brucei brucei, UniProt Q38C91); test: MetRS (T. brucei) ATP depletion assay using Kinase-Glo; assay type: biochemical
T. brucei = test: Growth inhibition assay of T. brucei cell cultures (Alamar Blue, 48 h); assay type: cell-based; details: Trypanosoma brucei; read-out: B) T. brucei EC50

MetRS (T. brucei), sequence (Q38C91 entry or part of it): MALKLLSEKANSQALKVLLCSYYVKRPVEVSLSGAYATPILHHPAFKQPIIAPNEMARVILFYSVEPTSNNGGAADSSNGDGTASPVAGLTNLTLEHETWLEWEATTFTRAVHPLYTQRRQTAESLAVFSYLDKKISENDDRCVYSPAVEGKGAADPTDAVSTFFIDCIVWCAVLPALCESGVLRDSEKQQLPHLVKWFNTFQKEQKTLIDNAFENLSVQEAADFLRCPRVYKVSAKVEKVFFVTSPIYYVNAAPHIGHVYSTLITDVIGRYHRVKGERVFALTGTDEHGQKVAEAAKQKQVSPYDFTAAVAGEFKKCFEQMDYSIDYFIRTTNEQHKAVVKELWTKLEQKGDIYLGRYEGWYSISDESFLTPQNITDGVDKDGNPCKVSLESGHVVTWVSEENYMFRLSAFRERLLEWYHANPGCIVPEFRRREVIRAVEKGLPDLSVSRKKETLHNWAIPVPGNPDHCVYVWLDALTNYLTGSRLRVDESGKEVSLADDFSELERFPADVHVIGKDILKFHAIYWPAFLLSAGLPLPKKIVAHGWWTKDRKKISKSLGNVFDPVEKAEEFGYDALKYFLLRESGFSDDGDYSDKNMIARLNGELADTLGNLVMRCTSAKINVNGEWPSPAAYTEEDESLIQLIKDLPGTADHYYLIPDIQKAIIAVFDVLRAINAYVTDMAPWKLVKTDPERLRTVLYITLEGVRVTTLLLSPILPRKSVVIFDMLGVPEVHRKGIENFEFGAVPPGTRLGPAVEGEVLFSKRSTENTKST

Structure (SMILES)	IC50 (MetRS (T. brucei)) [µM]	EC50 (T. brucei) [µM]
CCN(Cc1cc(Cl)cc(Cl)c1)[C@H]1CCCN(c2nc3ccc(Cl)nc3[nH]2)C1 [Compound 1955, (S)-1-(5-chloro-1H-imidazo[4,5-b]pyridin-2-yl)-N-(3,5-dichlorobenzyl)-N-ethylpiperidin-3-amine]	0.286	1.74
COc1ccc(Oc2cccc(NCc3nc4ccccc4[nH]3)n2)c(Cl)c1 [Compound 1924, N-((1H-benzo[d]imidazol-2-yl)methyl)-6-(2-chloro-4-methoxyphenoxy)pyridin-2-amine]	0.165	3.28
O=C(NCc1nc2ccc(Cl)nc2[nH]1)Nc1cc(Cl)cc(Cl)c1 [Compound 1890, 1-((5-chloro-1H-imidazo[4,5-b]pyridin-2-yl)methyl)-3-(3,5-dichlorophenyl)urea]	0.078	6.22
O=C(NCc1nc2ccccc2[nH]1)C(=O)NCc1ccc(Cl)cc1Cl [Compound 1802, N1-((1H-benzo[d]imidazol-2-yl)methyl)-N2-(2,4-dichlorobenzyl)oxalamide]	4.29	> 20
CN(Cc1nc2ccccc2[nH]1)C(=O)OCCc1ccc(Cl)cc1Cl [Compound 1728, 2-(2,4-dichlorophenyl)ethyl N-(1H-1,3-benzodiazol-2-ylmethyl)-N-methylcarbamate]	> 10	> 20
O=C(Cc1cc(Cl)cc(Cl)c1)N1CCCC(c2nc3cc(Cl)c(F)cc3[nH]2)C1 (stereo not drawn) [Compound 1746, 1-(3-(5-chloro-6-fluoro-1H-benzo[d]imidazol-2-yl)piperidin-1-yl)-2-(3,5-dichlorophenyl)ethanone]	0.138	3.33
O=C(Cc1cc(Cl)cc(Cl)c1)N1CCCC(c2nc3cc(Cl)c(Cl)cc3[nH]2)C1 (stereo not drawn) [Compound 1745, 1-(3-(5,6-dichloro-1H-benzo[d]imidazol-2-yl)piperidin-1-yl)-2-(3,5-dichlorophenyl)ethanone]	0.812	4.6
O=C(NCc1nc2ccc(F)cc2[nH]1)OCCc1ccc(Cl)cc1Cl [Compound 1741, (6-Fluoro-1H-benzoimidazol-2-ylmethyl)-carbamic acid 2-(2,4-dichloro-phenyl)-ethyl ester]	0.132	4.22
O=C(Nc1cc(Cl)cc(Cl)c1)N1CCCC(c2nc3cc(Cl)ccc3[nH]2)C1 (stereo not drawn) [Compound 1759, 3-(5-chloro-1H-benzo[d]imidazol-2-yl)-N-(3,5-dichlorophenyl) piperidine-1-carboxamide]	> 10	> 10
CC(=O)N(Cc1cc(Cl)cc(Cl)c1)C1CCCC(c2nc3cc(Cl)cnc3[nH]2)C1 (stereo not drawn) [Compound 1842, N-(3-(6-chloro-3H-imidazo[4,5-b]pyridin-2-yl)cyclohexyl)-N-(3,5-dichlorobenzyl)acetamide]	> 10	8.58
Clc1cc(Cl)cc(CNCCSc2nc3nc(Cl)ccc3[nH]2)c1 [Compound 1896, [2-({5-chloro-1H-imidazo[4,5-b]pyridin-2-yl}sulfanyl)ethyl][(3,5-dichlorophenyl)methyl]amine]	1.05	1.4
Clc1ccc(CN2CCC[C@H](c3nc4cc(Cl)ccc4[nH]3)C2)c(Cl)c1 [Compound 1837, (S)-5-chloro-2-(1-(2,4-dichlorobenzyl)piperidin-3-yl)-1H-benzo[d]imidazole]	0.119	1.34
Clc1cc(Cl)cc(NCC2CCCN(c3nc4nc(Cl)c(Br)cc4[nH]3)C2)c1 (stereo not drawn) [Compound 1863, N-((1-(6-bromo-5-chloro-1H-imidazo[4,5-b]pyridin-2-yl)piperidin-3-yl)methyl)-3,5-dichloroaniline]	> 10	3.29
O=C(NCc1cc(Cl)cc(Cl)c1)N1CCCC(c2nc3nc(Cl)ccc3[nH]2)C1 (stereo not drawn) [Compound 1785, 3-(5-chloro-1H-imidazo[4,5-b]pyridin-2-yl)-N-(3,5-dichlorobenzyl) piperidine-1-carboxamide]	> 10	> 20
COC(=O)N(CCCNc1nc2ccc(F)nc2[nH]1)Cc1cc(Cl)cc(Cl)c1 [Compound 1964, methyl 3,5-dichlorobenzyl3-(5-fluoro-3H-imidazo[4,5-b]pyridin-2-ylamino)propylcarbamate]	0.017	0.0367
CCNc1c(Cl)cc(Cl)cc1CN[C@H]1CCCN(c2nc3nc(Cl)ccc3[nH]2)C1 [Compound 1940, (S)-1-(5-chloro-1H-imidazo[4,5-b]pyridin-2-yl)-N-(3,5-dichloro-2-(ethylamino)benzyl)piperidin-3-amine]	0.042	0.359
C=CCOc1c(Cl)cc(Cl)cc1CN[C@H]1CCCN(c2nc3nc(Cl)ccc3[nH]2)C1 [Compound 1928, (S)—N-(2-(allyloxy)-3,5-dichlorobenzyl)-1-(5-chloro-1H-imidazo[4,5-b]pyridin-2-yl)piperidin-3-amine]	0.021	0.326
O=C(CO)N(CCCNc1nc2ccc(F)nc2[nH]1)Cc1cc(Cl)cc(Cl)c1 [Compound 1973, N-(3,5-dichlorobenzyl)-N-(3-(5-fluoro-3H-imidazo[4,5-b]pyridin-2-ylamino)propyl)-2-hydroxyacetamide]	0.011	
O=C(Cc1cc(Cl)cc(Cl)c1)N1CCC[C@@H](c2nc3cc(Cl)ccc3[nH]2)C1 [Compound 1757, (R)-1-(3-(5-chloro-1H-benzo[d]imidazol-2-yl)piperidin-1-yl)-2-(3,5-dichlorophenyl)ethanone]	3.5	> 10
N[C@@H](COc1ccc(Cl)cc1Cl)C(=O)NCc1nc2ccccc2[nH]1 [Compound 1807, (S)—N-((1H-benzo[d]imidazol-2-yl)methyl)-3-(2,4-dichlorophenoxy)-2-aminopropanamide]	1.55	3.73
NC(=O)N(CCCNc1nc2ccc(F)nc2[nH]1)Cc1cc(Cl)cc(Cl)c1 [Compound 1974, 1-(3,5-dichlorobenzyl)-1-(3-(5-fluoro-3H-imidazo[4,5-b]pyridin-2-ylamino)propyl)urea]	0.007	
CC(=O)N(Cc1cc(Cl)cc(Cl)c1)C1CCCC(c2nc3ncccc3[nH]2)C1 (stereo not drawn) [Compound 1818, N-(3-(1H-imidazo[4,5-b]pyridin-2-yl)cyclohexyl)-N-(3,5-dichlorobenzyl) acetamide]	7.95	> 20
O=C1CN(Cc2cccc(Cl)c2)CCN1Cc1nc2ccccc2[nH]1 [Compound 1736, 1-((1H-benzo[d]imidazol-2-yl)methyl)-4-(3-chlorobenzyl)piperazin-2-one]	> 10	> 20
O=C(Nc1cc(Cl)cc(Cl)c1)[C@H]1CCCN(c2nc3nc(Cl)ccc3[nH]2)C1 [Compound 1888, (S)-1-(5-chloro-1H-imidazo[4,5-b]pyridin-2-yl)-N-(3,5-dichlorophenyl)piperidine-3-carboxamide]		> 20
O=C(N[C@H]1CCCN(c2nc3nc(Cl)ccc3[nH]2)C1)c1cc(Cl)cc(Cl)c1 [Compound 1889]		> 20
Clc1cc(Cl)c2ccn(CCCNc3nc4ccc(Cl)nc4[nH]3)c2c1 [Compound 1996, 5-chloro-N-[3-(4,6-dichloro-1H-indol-1-yl)propyl]-3H-imidazo[4,5-b]pyridin-2-amine]		5.3
Clc1cc(Cl)cc(CCN2CCCC(c3nc4nc(Cl)ccc4[nH]3)C2)c1 (stereo not drawn) [Compound 1812, 5-chloro-2-(1-(3,5-dichlorophenethyl)piperidin-3-yl)-1H-imidazo[4,5-b]pyridine]		3.76
